Patent publication US4533665A, “[[Bis(aryl)methylene]-1-piperidinyl]alkyl-pyrimidinones” (Janssen Pharmaceutica, priority 1984, dated 1985)

The molecules below were run against T1, S2-receptor (Rattus norvegicus, UniProt P14842) (assay: antagonistic activity on the effect of serotonin on the caudal artery of the rat (caudal artery test)). Settings: rat caudal artery strips; serotonin 40 ng/ml; 5 minutes after adding the drug; read-out: ED50 (minimal concentration which reduces the amplitude of the serotonin-induced contraction to at least 50% of its normal value) (converted).
T1 construct: Caudal arteries from fasted male rats; from tissue; host or cells: rat caudal artery, helical strips
T1 sequence (P14842 whole entry): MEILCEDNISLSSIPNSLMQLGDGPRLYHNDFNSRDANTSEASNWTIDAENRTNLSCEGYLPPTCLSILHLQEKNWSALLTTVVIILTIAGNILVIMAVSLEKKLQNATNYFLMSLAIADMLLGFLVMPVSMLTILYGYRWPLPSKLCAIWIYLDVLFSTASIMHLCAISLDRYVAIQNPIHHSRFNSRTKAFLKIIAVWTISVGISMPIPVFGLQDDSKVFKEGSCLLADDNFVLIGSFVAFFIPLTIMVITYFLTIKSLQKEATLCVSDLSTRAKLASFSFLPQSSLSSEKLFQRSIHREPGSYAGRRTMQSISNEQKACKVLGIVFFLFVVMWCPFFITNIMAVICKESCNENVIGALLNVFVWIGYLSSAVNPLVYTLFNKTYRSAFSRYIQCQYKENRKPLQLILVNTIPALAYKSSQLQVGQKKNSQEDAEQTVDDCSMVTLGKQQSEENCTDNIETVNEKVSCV
Method: ANTAGONISTIC ACTIVITY ON THE EFFECT OF SEROTONIN ON THE CAUDAL ARTERY OF THE RAT
Caudal arteries from fasted male rats (210-235 g) were used in the test. […] Submaximal contractions of the arterial strips were produced by adding single doses of serotonin (40 ng/ml) to the organ bath for 2 minutes with each time an interval of 10 minutes. The amplitude of the contraction was measured before and 5 minutes after adding the drug. After washing out, the agonist was added again three times in order to see whether the contraction was restored and normalized. […] In this connection the ED50 -values are the minimal concentrations of the concerned drugs which reduce the amplitude of the contraction to at least 50% of its normal value.

SMILES	IC50 [pM]
Cc1nc2n(c(=O)c1CCN1CCC(=C(c3ccc(F)cc3)c3cccc(Cl)c3)CC1)CCS2 [Compound 5]	0.323
Cc1nc2scc(C)n2c(=O)c1CCN1CCC(=C(c2ccc(F)cc2)c2cccc(Cl)c2)CC1 [Compound 7]	1.24
Cc1nc2sccn2c(=O)c1CCN1CCC(=C(c2ccc(F)cc2)c2ccc(Cl)cc2)CC1 [Compound 9]	< 1.28
Cc1nc2n(c(=O)c1CCN1CCC(=C(c3ccc(F)cc3)c3ccc(Cl)cc3)CC1)CCCC2 [Compound 11]	2.54
Cc1nc2ccccn2c(=O)c1CCN1CCC(=C(c2ccc(F)cc2)c2ccc(Cl)cc2)CC1 [Compound 13]	2.56
Cc1nc2sccn2c(=O)c1CCN1CCC(=C(c2ccc(F)cc2)c2cccc(C(F)(F)F)c2)CC1 [Compound 21]	1.19
Cc1nc2sccn2c(=O)c1CCN1CCC(=C(c2ccc(O)cc2)c2ccc(F)cc2)CC1 [Compound 24]	0.378
Cc1ccc(C(=C2CCN(CCc3c(C)nc4sccn4c3=O)CC2)c2ccc(C)cc2)cc1 [Compound 26]	1.19
Cc1nc2scc(C)n2c(=O)c1CCN1CCC(=C(c2ccc(F)cc2)c2cccc(F)c2)CC1 [Compound 27]	0.651
Cc1nc2n(c(=O)c1CCN1CCC(=C(c3ccc(F)cc3)c3cccc(F)c3)CC1)CCCC2 [Compound 30]	1.18
Cc1nc2scc(C)n2c(=O)c1CCN1CCC(=C(c2ccc(F)cc2)c2ccc(Br)cc2)CC1 [Compound 32]	2.35
Cc1nc2n(c(=O)c1CCN1CCC(=C(c3ccc(F)cc3)c3ccc(Br)cc3)CC1)CCCS2 [Compound 33]	5.05
Cc1ccc(C(=C2CCN(CCc3c(C)nc4scc(C)n4c3=O)CC2)c2ccc(F)cc2)cc1 [Compound 38]	0.656
Cc1ccc(C(=C2CCN(CCc3c(C)nc4ccccn4c3=O)CC2)c2ccc(F)cc2)cc1 [Compound 41]	0.684
Cc1ccc(C(=C2CCN(CCc3c(C)nc4ccccn4c3=O)CC2)c2ccc(C)cc2)cc1 [Compound 43]	1.53
Cc1nc2n(c(=O)c1CCN1CCC(=C(c3ccc(F)cc3)c3ccc(Br)cc3)CC1)CCS2 [Compound 44]	1.04

SMILES	IC50 [pM]
Cc1ccc(C(=C2CCN(CCc3c(C)nc4n(c3=O)CCS4)CC2)c2ccc(F)cc2)cc1 [Compound 47]	0.673
Cc1ccc(C(=C2CCN(CCc3c(C)nc4sccn4c3=O)CC2)c2ccc(F)cc2)cc1 [Compound 49]	0.676
Cc1ccc2nc(C)c(CCN3CCC(=C(c4ccc(F)cc4)c4ccc(F)cc4)CC3)c(=O)n2c1 [Compound 50]	1.46
Cc1nc2sccn2c(=O)c1CCN1CCC(=C(c2ccc(F)cc2)c2cccnc2)CC1 [Compound 53]	2.82
Cc1nc2n(c(=O)c1CCN1CCC(=C(c3ccc(F)cc3)c3cccnc3)CC1)CCCC2 [Compound 54]	6.11
Cc1nc2ccccn2c(=O)c1CCN1CCC(=C(c2ccc(F)cc2)c2cccnc2)CC1 [Compound 57]	2.86
Cc1nc2ccccn2c(=O)c1CCN1CCC(=C(c2ccc(F)cc2)c2ccc(F)cc2)CC1 [Compound 58]	1.34
Cc1nc2ccccn2c(=O)c1CCN1CCC(=C(c2ccc(F)cc2)c2ccc(F)cc2)C(O)C1 (centres unmarked) [Compound 61]	4.51
COC1CN(CCc2c(C)nc3ccccn3c2=O)CCC1=C(c1ccc(F)cc1)c1ccc(F)cc1 (centres unmarked) [Compound 62]	5.58
COC1CN(CCc2c(C)nc3sccn3c2=O)CCC1=C(c1ccc(F)cc1)c1ccc(F)cc1 (centres unmarked) [Compound 63]	2.56
Cc1cccc(C(=C2CCN(CCc3c(C)nc4scc(C)n4c3=O)CC2)c2ccccc2)c1 [Compound 68]	0.681
Cc1ccc(C(=C2CCN(CCc3c(C)nc4n(c3=O)CCCC4)CC2)c2ccccc2)cc1 [Compound 71]	0.705
Cc1nc2n(c(=O)c1CCN1CCC(=C(c3ccccc3)c3ccc(O)cc3)CC1)CCS2 [Compound 73]	5.44
Cc1nc2sccn2c(=O)c1CCN1CCC(=C(c2ccccc2)c2ccc(O)cc2)CC1 [Compound 80]	2.84
Cc1ccccc1C(=C1CCN(CCc2c(C)nc3scc(C)n3c2=O)CC1)c1ccccc1 [Compound 81]	< 5.32
Cc1nc2ccccn2c(=O)c1CCN1CCC(=C(c2ccccc2)c2cccc(C(F)(F)F)c2)CC1 [Compound 87]	< 4.96

Further lines, results first:

IC50 [pM]	SMILES
2.76	Cc1nc2ccccn2c(=O)c1CCN1CCC(=C(c2ccc(F)cc2)c2ccc(F)cc2)CC1 [Compound 2]
1.18	Cc1nc2n(c(=O)c1CCN1CCC(=C(c3ccc(F)cc3)c3ccc(F)cc3)CC1)CCCC2 [Compound 3]
0.362	Cc1nc2sccn2c(=O)c1CCN1CCC(=C(c2ccccc2)c2ccccc2)CC1 [Compound 4]
1.28	Cc1nc2sccn2c(=O)c1CCN1CCC(=C(c2ccc(F)cc2)c2cccc(Cl)c2)CC1 [Compound 6]
1.33	Cc1cccc(C(=C2CCN(CCc3c(C)nc4sccn4c3=O)CC2)c2ccc(F)cc2)c1 [Compound 14]
1.35	Cc1cccc(C(=C2CCN(CCc3c(C)nc4ccccn4c3=O)CC2)c2ccc(F)cc2)c1 [Compound 15]
1.29	Cc1nc2ccccn2c(=O)c1CCN1CCC(=C(c2ccc(F)cc2)c2cccc(Cl)c2)CC1 [Compound 16]
< 1.45	Cc1nc2ccccn2c(=O)c1CCN1CCC(=C(c2ccccc2)c2ccccc2)CC1 [Compound 18]
2.66	Cc1nc2ccccn2c(=O)c1CCN1CCC(=C(c2ccc(O)cc2)c2ccc(F)cc2)CC1 [Compound 20]
2.62	Cc1nc2n(c(=O)c1CCN1CCC(=C(c3ccc(F)cc3)c3ccc(Cl)cc3)CC1)CCS2 [Compound 22]
1.14	Cc1nc2scc(C)n2c(=O)c1CCN1CCC(=C(c2ccc(O)cc2)c2ccc(F)cc2)CC1 [Compound 23, 6-[2-[4-[(4-fluorophenyl)-(4-hydroxyphenyl)methylene]-1-piperidinyl]ethyl]-3,7-dimethyl-5H-thiazolo[3,2-a]pyrimidin-5-one]
0.293	Cc1nc2sccn2c(=O)c1CCN1CCC(=C(c2ccc(F)cc2)c2cccc(F)c2)CC1 [Compound 25]
1.17	Cc1nc2n(c(=O)c1CCN1CCC(=C(c3ccc(F)cc3)c3cccc(F)c3)CC1)CCS2 [Compound 28]
0.648	Cc1nc2n(c(=O)c1CCN1CCC(=C(c3ccc(F)cc3)c3ccc(F)cc3)CC1)CCCS2 [Compound 29]
4.79	Cc1nc2ccccn2c(=O)c1CCN1CCC(=C(c2ccc(F)cc2)c2cccc(C(F)(F)F)c2)CC1 [Compound 31]
1.04	Cc1nc2sccn2c(=O)c1CCN1CCC(=C(c2ccc(F)cc2)c2ccc(Br)cc2)CC1 [Compound 34]
1.32	Cc1nc2n(c(=O)c1CCN1CCC(=C(c3ccc(F)cc3)c3ccc(Br)cc3)CC1)CCCC2 [Compound 35]
0.679	Cc1nc2ccccn2c(=O)c1CCN1CCC(=C(c2ccc(F)cc2)c2cccc(F)c2)CC1 [Compound 36]
2.64	Cc1nc2n(c(=O)c1CCN1CCC(=C(c3ccc(O)cc3)c3ccc(F)cc3)CC1)CCCS2 [Compound 37]
1.33	Cc1nc2n(c(=O)c1CCN1CCC(=C(c3ccc(O)cc3)c3ccc(F)cc3)CC1)CCCC2 [Compound 39]

IC50 [pM]	SMILES
1.14	Cc1ccc(C(=C2CCN(CCc3c(C)nc4n(c3=O)CCCS4)CC2)c2ccc(F)cc2)cc1 [Compound 40]
4.66	Cc1ccc(C(=C2CCN(CCc3c(C)nc4n(c3=O)CCCC4)CC2)c2ccc(F)cc2)cc1 [Compound 42]
2.44	Cc1nc2ccccn2c(=O)c1CCN1CCC(=C(c2ccc(F)cc2)c2ccc(Br)cc2)CC1 [Compound 45]
2.76	Cc1ccc(C(=C2CCN(CCc3c(C)nc4n(c3=O)CCCC4)CC2)c2ccc(F)cc2)cc1 [Compound 46]
4.31	Cc1nc2sccn2c(=O)c1CCN1CCC(=C(c2ccc(Cl)cc2)c2ccc(Cl)cc2)CC1 [Compound 48]
1.4	Cc1nc2ccc(Cl)cn2c(=O)c1CCN1CCC(=C(c2ccc(F)cc2)c2ccc(F)cc2)CC1 [Compound 51]
1.4	Cc1nc2n(c(=O)c1CCN1CCC(=C(c3ccc(Cl)cc3)c3ccc(Cl)cc3)CC1)CCCC2 [Compound 52]
2.6	Cc1cc(C)n2c(=O)c(CCN3CCC(=C(c4ccc(F)cc4)c4ccc(F)cc4)CC3)c(C)nc2c1 [Compound 55]
0.659	Cc1ccn2c(=O)c(CCN3CCC(=C(c4ccc(F)cc4)c4ccc(F)cc4)CC3)c(C)nc2c1 [Compound 59]
2.63	Cc1nc2sccn2c(=O)c1CCN1CCC(=C(c2ccc(F)cc2)c2ccc(F)cc2)C(O)C1 (centres unmarked) [Compound 60]
0.158	Cc1ccc(C(=C2CCN(CCc3c(C)nc4sccn4c3=O)CC2)c2ccccc2)cc1 [Compound 66]
0.702	Cc1cccc(C(=C2CCN(CCc3c(C)nc4sccn4c3=O)CC2)c2ccccc2)c1 [Compound 69]
1.19	Cc1cccc(C(=C2CCN(CCc3c(C)nc4n(c3=O)CCCS4)CC2)c2ccccc2)c1 [Compound 70]
1.51	Cc1nc2scc(C)n2c(=O)c1CCN1CCC(=C(c2ccccc2)c2ccc(O)cc2)CC1 [Compound 72]
2.88	Cc1nc2ccccn2c(=O)c1CCN1CCC(=C(c2ccccc2)c2ccc(O)cc2)CC1 [Compound 78]
< 4.77	Cc1nc2scc(C)n2c(=O)c1CCN1CCC(=C(c2ccccc2)c2cccc(C(F)(F)F)c2)CC1 [Compound 85]
0.63	Cc1nc2n(c(=O)c1CCN1CCC(=C(c3ccccc3)c3cccc(C(F)(F)F)c3)CC1)CCCC2 [Compound 86]
< 4.91	Cc1nc2sccn2c(=O)c1CCN1CCC(=C(c2ccccc2)c2cccc(C(F)(F)F)c2)CC1 [Compound 89]
1.39	Cc1nc2n(c(=O)c1CCN1CCC(=C(c3ccccc3)c3cccc(C(F)(F)F)c3)CC1)CCS2 [Compound 90]
